Values joined by “and” are separate entries in the source; they are usually repeats but may differ in a detail not shown here. Equal entries are not always repeated. Results filed as inconclusive are left out.
Test system: BDF1 mice, colon carcinoma 38 sc, T/C %
Experiment: NCI In Vivo Anticancer Drug Screen. Data for tumor model Colon Carcinoma 38 (subcutaneous) in B6D2F1 (BDF1) mice
Conditions: endpoint: median tumor weight (est.), higher = larger tumour
Outline: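 Compound antitumor activity was assessed in mice carrying transplantable tumors. Survival or tumor size was recorded, and each value is the treated-group measurement divided by that of the vehicle-treated control group.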

[1] = dose: 100.0 mg/kg/injection, schedule: Q07DX002 (ip), vehicle: Klucel (hydroxypropylcellulose) (HPC)
[2] = dose: 200.0 mg/kg/injection, schedule: Q07DX002 (ip), vehicle: Klucel (hydroxypropylcellulose) (HPC)
[3] = dose: 12.5 mg/kg/injection, schedule: Q07DX002 (ip), vehicle: saline
[4] = dose: 100.0 mg/kg/injection, schedule: Q07DX002 (ip), vehicle: saline

Cc1cc2c(cc1C)C(=O)c1c(O)c3c(c(O)c1C2=O)C[C@@](O)(C(=O)CO)C[C@@H]3OC1CC(N)C(O)C(C)O1 (stereo not given in full)
T/C (dose: 4.75 mg/kg/injection, schedule: Q07DX002 (ip), vehicle: distilled water + Tween-80): 51 % of control
T/C (dose: 6.33 mg/kg/injection, schedule: Q07DX002 (ip), vehicle: distilled water + Tween-80): 65 % of control
T/C (dose: 8.44 mg/kg/injection, schedule: Q07DX002 (ip), vehicle: distilled water + Tween-80): 28 % of control
T/C (dose: 11.25 mg/kg/injection, schedule: Q07DX002 (ip), vehicle: distilled water + Tween-80): 23 % of control
T/C (dose: 15.0 mg/kg/injection, schedule: Q07DX002 (ip), vehicle: distilled water + Tween-80): 17 % of control

O=C(NO)c1cc(O)c(O)c(O)c1
T/C (dose: 50.0 mg/kg/injection, schedule: Q07DX002 (ip), vehicle: water): 80 % of control
T/C (dose: 100.0 mg/kg/injection, schedule: Q07DX002 (ip), vehicle: water): 70 % of control
T/C (dose: 200.0 mg/kg/injection, schedule: Q07DX002 (ip), vehicle: water): 68 % of control
T/C (dose: 400.0 mg/kg/injection, schedule: Q07DX002 (ip), vehicle: water): 83 % of control
T/C (dose: 800.0 mg/kg/injection, schedule: Q07DX002 (ip), vehicle: water): 40 % of control

CCC[CH2][Hg][Cl]
T/C (dose: 0.62 mg/kg/injection, schedule: Q07DX002 (ip), vehicle: Klucel (hydroxypropylcellulose) (HPC)): 99 % of control
T/C (dose: 2.5 mg/kg/injection, schedule: Q07DX002 (ip), vehicle: Klucel (hydroxypropylcellulose) (HPC)): 92 % of control
T/C (dose: 5.0 mg/kg/injection, schedule: Q07DX002 (ip), vehicle: Klucel (hydroxypropylcellulose) (HPC)): 105 % of control
T/C (dose: 20.0 mg/kg/injection, schedule: Q07DX002 (ip), vehicle: Klucel (hydroxypropylcellulose) (HPC)): 113 % of control

CNC(=O)OCc1c(COC(=O)NC)c(-c2ccc(Cl)c(Cl)c2)n2c1Cc1ccccc1C2
T/C (dose: 50.0 mg/kg/injection, schedule: Q07DX002 (ip), vehicle: distilled water + Tween-80): 86 % of control
T/C (dose: 100.0 mg/kg/injection, schedule: Q07DX002 (ip), vehicle: distilled water + Tween-80): 81 % of control
T/C (dose: 200.0 mg/kg/injection, schedule: Q07DX002 (ip), vehicle: distilled water + Tween-80): 65 % of control

CC(=O)NC(CCc1ccc(Cl)c(Cl)c1)c1cccc(O)c(=O)c1 (stereo not given)
T/C (dose: 25.0 mg/kg/injection, schedule: Q07DX002 (ip), vehicle: Klucel (hydroxypropylcellulose) (HPC)): 161 % of control
T/C [1]: 109 % of control
T/C [2]: 122 % of control

CCN(CC)CCC(=O)c1ccccc1
T/C (dose: 6.25 mg/kg/injection, schedule: Q07DX002 (ip), vehicle: saline): 85 % of control
T/C [3]: 118 % of control and 108 % of control
T/C (dose: 12.5 mg/kg/injection, schedule: Q07DX002 (ip), vehicle: suspension in saline): 122 % of control
T/C (dose: 25.0 mg/kg/injection, schedule: Q07DX002 (ip), vehicle: suspension in saline): 80 % of control
T/C (dose: 50.0 mg/kg/injection, schedule: Q07DX002 (ip), vehicle: suspension in saline): 85 % of control
T/C [4]: 108 % of control

O=C1N[C@H]2[C@H](CS[C@H]2CCCCC(=O)N(CCP(c2ccccc2)c2ccccc2)CCP(c2ccccc2)c2ccccc2)N1
T/C (dose: 50.0 mg/kg/injection, schedule: Q07DX002 (ip), vehicle: Klucel (hydroxypropylcellulose) (HPC)): 71 % of control
T/C [1]: 71 % of control
T/C [2]: 91 % of control
T/C (dose: 400.0 mg/kg/injection, schedule: Q07DX002 (ip), vehicle: Klucel (hydroxypropylcellulose) (HPC)): 96 % of control
T/C (dose: 800.0 mg/kg/injection, schedule: Q07DX002 (ip), vehicle: Klucel (hydroxypropylcellulose) (HPC)): 89 % of control

CN(CO)c1nc(N(C)CO)nc(N(C)CO)n1
T/C [3]: 95 % of control
T/C (dose: 12.5 mg/kg/injection, schedule: Q07DX003 (ip), vehicle: saline): 208 % of control
T/C (dose: 25.0 mg/kg/injection, schedule: Q07DX002 (ip), vehicle: saline): 87 % of control
T/C (dose: 25.0 mg/kg/injection, schedule: Q07DX003 (ip), vehicle: saline): 165 % of control
T/C (dose: 50.0 mg/kg/injection, schedule: Q07DX002 (ip), vehicle: saline with Tween-80): 117 % of control
T/C (dose: 50.0 mg/kg/injection, schedule: Q07DX002 (ip), vehicle: saline): 66 % of control
T/C (dose: 50.0 mg/kg/injection, schedule: Q07DX003 (ip), vehicle: saline): 81 % of control
T/C (dose: 100.0 mg/kg/injection, schedule: Q07DX002 (ip), vehicle: saline with Tween-80): 105 % of control
T/C [4]: 46 % of control
T/C (dose: 100.0 mg/kg/injection, schedule: Q07DX003 (ip), vehicle: saline): 46 % of control
T/C (dose: 200.0 mg/kg/injection, schedule: Q07DX002 (ip), vehicle: saline with Tween-80): 55 % of control
T/C (dose: 200.0 mg/kg/injection, schedule: Q07DX002 (ip), vehicle: saline): 21 % of control
T/C (dose: 200.0 mg/kg/injection, schedule: Q07DX003 (ip), vehicle: saline): 6 % of control
T/C (dose: 400.0 mg/kg/injection, schedule: Q07DX002 (ip), vehicle: saline): 4 % of control
